Reference: US8013169B2, “Naphthylmethylimidizoles as therapeutic agents” (Allergan, Inc, priority 2007, dated 2011)

Key:
[1] = biological target: T1, Alpha 1A (Homo sapiens, UniProt P35348); experiment: RSAT assay, Alpha 1A; format: cell-based; conditions: for Alpha 1A (IA) intrinsic activity: ratio of maximal effect of drug to maximal effect of standard full agonist
T1 construct: expressed in transfected cells; host or cells: NIH-3T3
T1 sequence (P35348 1-466): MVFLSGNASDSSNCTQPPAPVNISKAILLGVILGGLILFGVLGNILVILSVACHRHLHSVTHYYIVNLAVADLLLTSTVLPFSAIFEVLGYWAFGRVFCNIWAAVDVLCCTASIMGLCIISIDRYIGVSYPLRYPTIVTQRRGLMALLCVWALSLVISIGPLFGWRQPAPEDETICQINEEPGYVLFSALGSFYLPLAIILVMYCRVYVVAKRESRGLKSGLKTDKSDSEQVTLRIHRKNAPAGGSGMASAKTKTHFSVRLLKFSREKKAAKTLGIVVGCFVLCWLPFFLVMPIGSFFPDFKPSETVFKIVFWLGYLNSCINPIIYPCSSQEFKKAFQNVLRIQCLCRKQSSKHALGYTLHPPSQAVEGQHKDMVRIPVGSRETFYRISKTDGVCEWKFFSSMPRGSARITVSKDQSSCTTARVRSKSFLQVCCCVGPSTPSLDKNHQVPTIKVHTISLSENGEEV
Experimental: (§1) The RSAT assay measures a receptor-mediated loss of contact inhibition that results in selective proliferation of receptor-containing cells in a mixed population of confluent cells. The increase in cell number is assessed with an appropriate transfected marker gene such as […]-galactosidase, the activity of which can be easily measured in a 96-well format. Receptors that activate the G protein, Gq, elicit this response. Alpha2 receptors, which normally couple to Gi, activate the RSAT response when coexpressed with a hybrid Gq protein that has a Gi receptor recognition domain, called Gq/i5.
NIH-3T3 cells are plated at a density of 2×10^6 cells in 15 cm dishes and maintained in Dulbecco's modified Eagle's medium supplemented with 10% calf serum. One day later, cells are cotransfected by calcium phosphate precipitation with mammalian expression plasmids encoding p-SV-β-galactosidase (5-10 μg), receptor (1-2 μg) and G protein (1-2 μg). 40 μg salmon sperm DNA may also be included in the transfection mixture. Fresh media is added on the following day and 1-2 days later, cells are harvested and frozen in 50 assay aliquots. Cells are thawed and 100 μl added to 100 μl aliquots of various concentrations of drugs in triplicate in 96-well dishes. Incubations continue 72-96 hr at 37° C. After washing with phosphate-buffered saline, β-galactosidase enzyme activity is determined by adding 200 μl of the chromogenic substrate (consisting of 3.5 mM o-nitrophenyl-β-D-galactopyranoside and 0.5% nonidet P-40 in phosphate buffered saline), incubating overnight at 30° C. and measuring optical density at 420 nm. The absorbance is a measure of enzyme activity, which depends on cell number and reflects a receptor-mediated cell proliferation. The efficacy or intrinsic activity is calculated as a ratio of the maximal effect of the drug to the maximal effect of a standard full agonist for each receptor subtype. Brimonidine, also called UK14304, the chemical structure of which is shown below, is used as the standard agonist for the alpha2A, alpha2B and alpha2C receptors. The EC50 is the concentration at which the drug effect is half of its maximal effect.
EC50 values are nanomolar. NA stands for “not active” at concentrations less than 10 micromolar. IA stands for “intrinsic activity.”

[2] = biological target: T2, Alpha 2B (Homo sapiens, UniProt P18089); experiment: RSAT assay, Alpha 2B; format: cell-based
T2 construct: expressed in transfected cells; host or cells: NIH-3T3
T2 sequence (P18089 1-450): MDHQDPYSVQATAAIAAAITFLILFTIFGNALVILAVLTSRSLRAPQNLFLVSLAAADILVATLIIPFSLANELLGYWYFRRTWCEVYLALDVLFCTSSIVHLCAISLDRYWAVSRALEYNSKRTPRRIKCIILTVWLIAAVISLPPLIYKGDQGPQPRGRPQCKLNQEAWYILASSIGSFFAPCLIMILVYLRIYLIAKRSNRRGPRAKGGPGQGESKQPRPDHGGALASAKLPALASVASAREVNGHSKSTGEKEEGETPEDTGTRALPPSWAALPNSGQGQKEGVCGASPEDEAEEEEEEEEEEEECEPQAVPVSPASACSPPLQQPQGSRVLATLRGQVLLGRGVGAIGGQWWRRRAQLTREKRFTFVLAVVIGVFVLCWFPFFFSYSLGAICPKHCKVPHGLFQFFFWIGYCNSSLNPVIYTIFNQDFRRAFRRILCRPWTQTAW
Experimental: as §1
NIH-3T3 cells are plated at a density of 2×10^6 cells in 15 cm dishes and maintained in Dulbecco's modified Eagle's medium supplemented with 10% calf serum. […] After washing with phosphate-buffered saline, β-galactosidase enzyme activity is determined by adding 200 μl of the chromogenic substrate (consisting of 3.5 mM o-nitrophenyl-β-D-galactopyranoside and 0.5% nonidet P-40 in phosphate buffered saline), incubating overnight at 30° C. and measuring optical density at 420 nm. The absorbance is a measure of enzyme activity, which depends on cell number and reflects a receptor-mediated cell proliferation. The efficacy or intrinsic activity is calculated as a ratio of the maximal effect of the drug to the maximal effect of a standard full agonist for each receptor subtype. […]

Row | Compound | EC50 [1] [nM] | Alpha 1A (IA) intrinsic activity [1] | EC50 ([2]; RSAT, NIH-3T3 cells coexpressing Gq/i5, NA = not active at concentrations less than 10 micromolar) [nM] | Alpha 2B (IA) intrinsic activity ([2]; ratio of maximal effect of drug to maximal effect of standard full agonist brimonidine)
1 | CNc1ccc(Cc2nc[nH]c2C)c2ccccc12 [Compound 7, N-methyl-4-((5-methyl-1H-imidazol-4-yl)methyl)naphthalen-1-amine] | 13 | 1.2 |  | 
2 | Cc1[nH]cnc1Cc1ccc(N)c2ccccc12 [Compound 8, 4-((5-methyl-1H-imidazol-4-yl)methyl)naphthalen-1-amine] | 55 | 1.01 | 146 | 0.46
